Test system: mouse embryonic teratocarcinoma F9 cells
Experiment: differentiation test on mouse embryonic teratocarcinoma cells (F9), secretion of plasminogen activator
Assay type: cell-based
Settings: for AC50: concentration of the test product which produces half of the maximum amount of plasminogen activator secreted; for RAR-agonist character concluded from F9 differentiation results: conclusion drawn from the F9 AC50 results
From the text: Results of differentiation tests on mouse embryonic teratocarcinoma cells (F9) to identify the RAR-agonist molecules as described in Skin Pharmacol. 3, pp. 256-267, 1990.
After treatment with the compounds of the examples cited in the following table, the mouse embryonic teratocarcinoma F9 cells differentiate into endodermal cells. This differentiation is characterized by the secretion of the plasminogen activator into the culture medium.
The activity of the product is expressed by the AC50 value representing the concentration of the test product which produces half of the maximum amount of plasminogen activator secreted.

| SMILES | AC50 (Mus musculus, F9) [nM] | RAR-agonist character concluded from F9 differentiation results | AC50 [nM] |
| --- | --- | --- | --- |
| CC1(C)CCC(C)(C)c2cc([Se]C#Cc3ccc(C(=O)O)cc3)ccc21 [Compound 5, 4-(5,5,8,8-Tetramethyl-5,6,7,8-tetrahydro-2-naphthylselanylethynyl)benzoic acid] | 21 | RAR-agonist |  |
| COC(=O)c1ccc(C#CSc2ccc3c(c2)C(C)(C)CCC3(C)C)cc1 [Compound 1, Methyl 4-(5,5,8,8,-tetramethyl-5,6,7,8-tetrahydro-2-nachthylsuphanylethynyl)-benzoate] |  | RAR-agonist | 20 |
| CC1(C)CCC(C)(C)c2cc(SC#Cc3ccc(C(=O)O)cc3)ccc21 [Compound 2, 4-(5,5,8,8-Tetramethyl-5,6,7,8-tetrahydro-2-naphthylsuphanylethynyl)benzoic acid] |  | RAR-agonist | 1 |
| Cc1cc2c(cc1[Se]C#Cc1ccc(C(=O)O)c(O)c1)C(C)(C)CCC2(C)C [Compound 16, 2-Hydroxy-4-(3,5,5,8,8-pentamethyl-5,6,7,8-tetrahydro-2-naphthylselanylethynyl)benzoic acid] | 33 | RAR-agonist |  |
| Cc1cc2c(cc1[Se]C#Cc1ccc(C(=O)O)cn1)C(C)(C)CCC2(C)C [Compound 18, 6-(3,5,5,8,8-Pentamethyl-5,6,7,8-tetrahydro-2-naphthylselanylethynyl)nicotinic acid] | 34 | RAR-agonist |  |
| COC(=O)c1ccc(C#C[Se]c2ccc3c(c2)C(C)(C)CCC3(C)C)cc1 [Compound 4, Methyl 4-(5,5,8,8-tetramethyl-5,6,7,8-tetrahydro-2-naphthylselanylethynyl)benzoate] | 4 | RAR-agonist |  |

— patent US6818666B2, “Bi-aromatic compounds linked via a heteroethylene radical, and pharmaceutical and cosmetic compositions using them” (Galderma Research & Development, priority 1919, dated 2004)
